Legend:
[1] = tested on: CAL33 cells; assay: Scratch assay (migration), CAL33; format: cell-based; conditions: 24 h
Description: (§1) Figure 6 IL-22-induced proliferation and migration of healthy and transformed keratinocytes is counteracted by KIR-ESS peptide (A) Healthy KC, CAL27 and CAL33 cultures were plated in 96-well plates in quadruplicate for each condition. After 1 day, cells were pre-treated or not with Ctrl1 or KIR-ESS peptides (40 μM), or S31-201 ([…]) and PD98059 ([…]) chemical inhibitors, and, then, stimulated or not with 50 ng/ml of IL-22. Data relative to 48-h treatment are shown and expressed as the values of fluorescence intensity obtained from untreated and IL-22-treated ± SD. Three independent experiments were performed. *p < 0.01. (B) Scratch assays were carried out on healthy or SCC-lines, pre-incubated with mitomycin C (5 mg/ml), pre-treated with Ctrl1 or KIR-ESS peptides (40 μM), or S31-201 ([…]) or PD98059 ([…]) chemical inhibitors, and, then, stimulated or not with IL-22 for 24 h. Microscopic images were taken immediately after and 24 h after wound induction on confluent cell layers. Initial scratches (0 h) are dashed blank. (C) Cell-free area was measured and indicated as residual wound. Data are reported as healed wound (gray area of bars) vs residual wound (white area of bars) which a value of 100% was given. *p < 0.01.
(§2) Cultured keratinocytes and SCC cell lines were grown at 100% confluence on type IV collagen (20 μg/ml), and then incubated with mitomycin C (5 mg/ml) (Sigma-Aldrich) for 1 h. Cell monolayers were scratched with the tip of a p-200 pipette to create uniform cell-free zones, and, then, pre-treated with appropriate concentrations of SOCS3 mimetic or control peptides, or with 10 μM STAT3 (S3I-201, Santa Cruz) and 20 μM Erk1/2 (PD98059, Calbiochem) inhibitors for 1 h, before treating by 50 ng/ml of IL-22. Microscopy pictures were taken with a digital camera at different time points following IL-22 treatment. The residual gap between migrating keratinocytes was measured with a computer-assisted image analysis system (Axiovision; Zeiss, Oberkochen, Germany), and expressed as percentage of the initial scratched area.

[2] = tested on: healthy keratinocytes; assay: CyQUANT proliferation assay, healthy keratinocytes; format: cell-based, human; conditions: healthy KC; PD98059 20 μM or S3I-201 10 μM, 48 h
Description: (§3) Figure 6 IL-22-induced proliferation and migration of healthy and transformed keratinocytes is counteracted by KIR-ESS peptide (A) Healthy KC, CAL27 and CAL33 cultures were plated in 96-well plates in quadruplicate for each condition. After 1 day, cells were pre-treated or not with Ctrl1 or KIR-ESS peptides (40 μM), or S31-201 ([…]) and PD98059 ([…]) chemical inhibitors, and, then, stimulated or not with 50 ng/ml of IL-22. Data relative to 48-h treatment are shown and expressed as the values of fluorescence intensity obtained from untreated and IL-22-treated ± SD. Three independent experiments were performed. *p < 0.01. […] (C) Cell-free area was measured and indicated as residual wound. […]
(§4) SOCS1- and SOCS3 stably transfected keratinocytes or cultured keratinocytes previously transfected with SOCS3 or control siRNA were seeded in 96-well plates (1.5–2.0 × 10^4 cells/well), and, the day after, starved in medium without serum. At 60% confluence, cells were treated with 75 ng/ml of IL-22 for 3 days, stained with 0.5% crystal violet (Bio-Rad, Hercules, CA, USA), and then analyzed in an ELISA reader (model 3550 UV ELISA reader; Bio-Rad). […] After 1-h pre-incubation, cells were treated with IL-22 or left unstimulated, cultured for other 24, 48 and 72 h, and the number of viable cells determined by CyQUANT Cell Proliferation Assay, accordingly to manufacture's protocol. […]

[3] = tested on: healthy keratinocytes; assay: Scratch assay (migration), healthy keratinocytes; format: cell-based, human; conditions: without IL-22, 40 μM peptide or PD98059 20 μM, 24 h
Description: as §3, with “0.01. (B) Scratch assays were carried out on healthy or SCC-lines, pre-incubated with mitomycin C (5 mg/ml), pre-treated with Ctrl1 or KIR-ESS peptides (40 μM), or S31-201 ([…]) or PD98059 ([…]) chemical inhibitors, and, then, stimulated or not with IL-22 for 24 h.” for “0.01.”
Cultured keratinocytes and SCC cell lines were grown at 100% confluence on type IV collagen (20 μg/ml), and then incubated with mitomycin C (5 mg/ml) (Sigma-Aldrich) for 1 h. […] The residual gap between migrating keratinocytes was measured with a computer-assisted image analysis system (Axiovision; Zeiss, Oberkochen, Germany), and expressed as percentage of the initial scratched area.

[4] = tested on: CAL27 cells; assay: Scratch assay (migration), CAL27; format: cell-based; conditions: CAL27; 40 μM peptide, PD98059 20 μM or S3I-201 10 μM; IL-22 50 ng/ml, 24 h
Description: as §1, §2

[5] = tested on: SCC-cell lines (CAL27 and CAL33); assay: CyQUANT proliferation assay, SCC-cell lines; format: cell-based; conditions: PD98059 20 μM or S3I-201 10 μM, 48 h
Description: as §3, §4

COc1cccc(-c2cc(=O)c3ccccc3o2)c1N [PD98059]
wound closure / migration, resting cells ([1]; CAL33, without IL-22, 40 μM peptide or PD98059 20 μM): efficacious in inhibiting migration of CAL27 cells and healthy or CAL33 keratinocytes, respectively
wound closure, IL-22-treated ([1]; CAL33, 40 μM peptide, PD98059 20 μM or S3I-201 10 μM, IL-22 50 ng/ml): effect similar to those obtained with the chemical Erk1/2 and STAT3 inhibitors
proliferation (effect relative to KIR-ESS) [2]: KIR-ESS effect was similar to that observed in all healthy and transformed keratinocyte cultures
wound closure / migration, resting cells [3]: efficacious in inhibiting migration of CAL27 cells and healthy or CAL33 keratinocytes, respectively
wound closure, IL-22-treated [4]: effect similar to those obtained with the chemical Erk1/2 and STAT3 inhibitors
proliferation (effect relative to KIR-ESS) [5]: KIR-ESS effect was similar to that observed in all healthy and transformed keratinocyte cultures

Source: paper PMC5421877, “SOCS3 inhibits the pathological effects of IL-22 in non-melanoma skin tumor-derived keratinocytes” (Oncotarget, 2017)
